Data reported in ChEMBL document CHEMBL1201862, “PubChem BioAssay data set” (2004).
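Method: 48-hour compound exposure of cells in 96-well plates, five concentrations, linear interpolation of endpoints. GI50 is the concentration that inhibits growth by half.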 Calls of active or inactive are those of the source. No stated cut-off is given here; in the data, active = GI50 up to about 1.1 µM and inactive = higher.

Columns and labels:
Test in all cases: NCI anticancer screen, dose series, 48 h
[1] = system: K562
[2] = system: SK-MEL-5
[3] = system: MDA-MB-231
[4] = system: T47D
[5] = system: OVCAR-8
[6] = system: Malme-3M
[7] = system: TK-10
[8] = system: UACC-62
[9] = system: SW-620
[10] = system: SR
[11] = system: HCC 2998
[12] = system: HL-60
[13] = system: HCT-116
[14] = system: NCI-H226
[15] = system: SK-MEL-28
[16] = system: NCI/ADR-RES
[17] = system: SNB-19
[18] = system: NCI-H460
[19] = system: SK-MEL-2

SMILES | GI50 [1] | GI50 [2] | GI50 [3] | GI50 [4] | GI50 [5] | GI50 [6] | GI50 [7] | GI50 [8] | GI50 [9] | GI50 [10] | GI50 [11] | GI50 [12] | GI50 [13] | GI50 [14] | GI50 [15] | GI50 [16] | GI50 [17] | GI50 [18] | GI50 [19]
O=C1c2ccccc2C(=O)c2c(NCC3CO3)ccc(NCC3CO3)c21 (centres undefined) | 0.128 µM (active) | 1.68 µM (inactive) | 3.3 µM (inactive) | 4.2 µM (inactive) | 0.63 µM (active) | 5.3 µM (inactive) | 19 µM (inactive) | 1.08 µM (active) | 1.22 µM (inactive) | 0.0228 µM (active) | 9.1 µM (inactive) | < 0.01 µM (active) | 0.171 µM (active) | 8.59 µM (inactive) | 2.71 µM (inactive) | 1.6 µM (inactive) | 15.1 µM (inactive) | 2.39 µM (inactive) | –
COC(=O)Nc1cc(OCCCOC(C)=O)c2[nH]c(C(=O)OC)cc2c1C[C@H](O)CO | – | > 100 µM (inactive) | > 100 µM (inactive) | > 100 µM (inactive) | > 100 µM (inactive) | – | > 100 µM (inactive) | > 100 µM (inactive) | > 100 µM (inactive) | > 100 µM (inactive) | > 100 µM (inactive) | > 100 µM (inactive) | > 100 µM (inactive) | > 100 µM (inactive) | > 100 µM (inactive) | > 100 µM (inactive) | > 100 µM (inactive) | – | > 100 µM (inactive)
N[C@H](CCC(=O)NCP(=O)(O)O)C(=O)O | > 100 µM (inactive) | > 100 µM (inactive) | > 100 µM (inactive) | > 100 µM (inactive) | > 100 µM (inactive) | > 100 µM (inactive) | 10.5 µM (inactive) | > 100 µM (inactive) | > 100 µM (inactive) | > 100 µM (inactive) | > 100 µM (inactive) | > 100 µM (inactive) | > 100 µM (inactive) | – | > 100 µM (inactive) | > 100 µM (inactive) | > 100 µM (inactive) | > 100 µM (inactive) | > 100 µM (inactive)
COC(=O)[C@]1(C)CCC[C@@]2(C)C1CC[C@@]13C=C(C(C)C)[C@@H](CC1=O)CC23 (some centres undefined) | 13.8 µM (inactive) | 16.5 µM (inactive) | 30.3 µM (inactive) | 32.4 µM (inactive) | 29 µM (inactive) | – | 43.8 µM (inactive) | 28.6 µM (inactive) | 27.3 µM (inactive) | 15.5 µM (inactive) | 38.3 µM (inactive) | 19.8 µM (inactive) | 20.4 µM (inactive) | 21.1 µM (inactive) | 41.3 µM (inactive) | 23 µM (inactive) | 25.8 µM (inactive) | 35.4 µM (inactive) | –
Cc1ccc2c(c1)CC1(Cc3ccccc3C1=O)C2=O (centres undefined) | > 100 µM (inactive) | > 100 µM (inactive) | > 100 µM (inactive) | > 100 µM (inactive) | > 100 µM (inactive) | > 100 µM (inactive) | > 100 µM (inactive) | > 100 µM (inactive) | > 100 µM (inactive) | > 100 µM (inactive) | > 100 µM (inactive) | > 100 µM (inactive) | > 100 µM (inactive) | > 100 µM (inactive) | > 100 µM (inactive) | > 100 µM (inactive) | > 100 µM (inactive) | > 100 µM (inactive) | –
CN(C)CCNC(=O)c1cccc(C(=O)Nc2ccccc2)c1[N+](=O)[O-] | > 100 µM (inactive) | > 100 µM (inactive) | > 100 µM (inactive) | > 100 µM (inactive) | > 100 µM (inactive) | 48.5 µM (inactive) | > 100 µM (inactive) | > 100 µM (inactive) | > 100 µM (inactive) | > 100 µM (inactive) | > 100 µM (inactive) | > 100 µM (inactive) | > 100 µM (inactive) | > 100 µM (inactive) | > 100 µM (inactive) | > 100 µM (inactive) | > 100 µM (inactive) | > 100 µM (inactive) | > 100 µM (inactive)
O=[N+]([O-])/C(C(Cl)=C(Cl)Cl)=C1/OCCS1 | 30 µM (inactive) | 19.1 µM (inactive) | 17.5 µM (inactive) | 37.2 µM (inactive) | 16.8 µM (inactive) | 17.7 µM (inactive) | 25.9 µM (inactive) | 25.5 µM (inactive) | – | 30.1 µM (inactive) | 37.9 µM (inactive) | 16.9 µM (inactive) | 18 µM (inactive) | 30.2 µM (inactive) | 31.8 µM (inactive) | 17.1 µM (inactive) | 50.4 µM (inactive) | 27 µM (inactive) | 27.7 µM (inactive)
CC[n+]1[b-](C(C)(C)C)n(/N=C/C(C)(C)C)[b-](C(C)(C)C)[n+]1CC | 67.1 µM (inactive) | > 100 µM (inactive) | > 100 µM (inactive) | > 100 µM (inactive) | > 100 µM (inactive) | > 100 µM (inactive) | > 100 µM (inactive) | > 100 µM (inactive) | > 100 µM (inactive) | > 100 µM (inactive) | > 100 µM (inactive) | – | > 100 µM (inactive) | > 100 µM (inactive) | > 100 µM (inactive) | > 100 µM (inactive) | > 100 µM (inactive) | > 100 µM (inactive) | 70.3 µM (inactive)
COC(=O)CCCc1ccc2c(c1)CCC2 | – | > 100 µM (inactive) | > 100 µM (inactive) | > 100 µM (inactive) | > 100 µM (inactive) | > 100 µM (inactive) | > 100 µM (inactive) | > 100 µM (inactive) | > 100 µM (inactive) | > 100 µM (inactive) | > 100 µM (inactive) | > 100 µM (inactive) | > 100 µM (inactive) | > 100 µM (inactive) | > 100 µM (inactive) | > 100 µM (inactive) | > 100 µM (inactive) | > 100 µM (inactive) | > 100 µM (inactive)
C[C@]12CCC3C4=C(CCC3C1CCC2=O)C(=O)[C@H]1O[C@H]1C4=O (some centres undefined) | 1.29 µM (inactive) | 10 µM (inactive) | 1.8 µM (inactive) | 0.61 µM (active) | 2.09 µM (inactive) | 21.6 µM (inactive) | 3.35 µM (inactive) | 2.94 µM (inactive) | 1.78 µM (inactive) | 0.538 µM (active) | 1.9 µM (inactive) | 2.67 µM (inactive) | 0.453 µM (active) | 2.18 µM (inactive) | 12.3 µM (inactive) | 4.02 µM (inactive) | 15.6 µM (inactive) | 7.46 µM (inactive) | 12.2 µM (inactive)
C/C(=N\NC(=S)N1CCCCCCCCCCCC1)c1ccccn1 | 0.0223 µM (active) | 0.2 µM (active) | 0.169 µM (active) | 0.233 µM (active) | 0.147 µM (active) | 0.281 µM (active) | 0.166 µM (active) | – | 0.0652 µM (active) | 0.0782 µM (active) | 0.385 µM (active) | 0.0167 µM (active) | 0.447 µM (active) | 0.199 µM (active) | 0.33 µM (active) | 0.778 µM (active) | 0.659 µM (active) | 0.256 µM (active) | 0.299 µM (active)
O=C(/C=C/C(=O)N1CCCC1)N1CCCC1 | > 100 µM (inactive) | > 100 µM (inactive) | > 100 µM (inactive) | > 100 µM (inactive) | > 100 µM (inactive) | > 100 µM (inactive) | > 100 µM (inactive) | > 100 µM (inactive) | > 100 µM (inactive) | > 100 µM (inactive) | > 100 µM (inactive) | > 100 µM (inactive) | > 100 µM (inactive) | – | > 100 µM (inactive) | > 100 µM (inactive) | > 100 µM (inactive) | > 100 µM (inactive) | > 100 µM (inactive)
COc1ccc2c(c1)CC[C@@H]1[C@@H]2CC[C@]2(C)C(=O)/C(=C/c3ccc(C#N)cc3)C[C@@H]12 | > 100 µM (inactive) | > 100 µM (inactive) | > 100 µM (inactive) | > 100 µM (inactive) | > 100 µM (inactive) | > 100 µM (inactive) | > 100 µM (inactive) | > 100 µM (inactive) | > 100 µM (inactive) | > 100 µM (inactive) | > 100 µM (inactive) | – | > 100 µM (inactive) | > 100 µM (inactive) | > 100 µM (inactive) | > 100 µM (inactive) | > 100 µM (inactive) | > 100 µM (inactive) | > 100 µM (inactive)
C[C@@]12C=CC3C/C(=N\C(N)=S)C=C(CCCC4OCCO4)[C@]3(CC1)C2 (some centres undefined) | 17.9 µM (inactive) | 12.4 µM (inactive) | 20.3 µM (inactive) | 22.1 µM (inactive) | 21.8 µM (inactive) | 18.4 µM (inactive) | 20.6 µM (inactive) | 16.2 µM (inactive) | 20.8 µM (inactive) | 15.1 µM (inactive) | 15.1 µM (inactive) | – | 13.7 µM (inactive) | 23.3 µM (inactive) | 18 µM (inactive) | 15.8 µM (inactive) | 34.5 µM (inactive) | 15.6 µM (inactive) | 16.9 µM (inactive)
CC(=O)OCc1ccc2oc(=O)c(C(=O)Oc3cccc(Cl)c3)cc2c1 | 23.9 µM (inactive) | > 100 µM (inactive) | 32.4 µM (inactive) | 20.6 µM (inactive) | > 100 µM (inactive) | > 100 µM (inactive) | 31.5 µM (inactive) | 17.4 µM (inactive) | 56.4 µM (inactive) | 44.8 µM (inactive) | 19.4 µM (inactive) | – | 21.2 µM (inactive) | > 100 µM (inactive) | 83 µM (inactive) | > 100 µM (inactive) | 83 µM (inactive) | 37.9 µM (inactive) | 82.4 µM (inactive)
